From EP0641858A1, “SERUM CALCIUM DEPRESSING FACTOR” (Chugai Seiyaku Kabushiki Kaisha, priority 1991, dated 1992)
Non-standard residues stand in square brackets, D forms with d. Residues, ends and D or L forms follow the SMILES beside them. *: point of attachment. Sta = CC(C)C[C@H](N)[C@@H](O)CC(=O)O; Isovaleryl = CC(C)CC(=O)*

Legend:
[1] = molecular target: T1, serum calcium decreasing factor of pig origin (from porcine pancreas), N-terminal sequence SEQ ID NO: 1 (Sus scrofa, UniProt F1SUW2, E34Q/S46R); assay: Effect of protease inhibitors on protease activity (azo-casein substrate, OD at 340 nm); type: biochemical
T1 sequence (F1SUW2 30-268 E34Q/S46R): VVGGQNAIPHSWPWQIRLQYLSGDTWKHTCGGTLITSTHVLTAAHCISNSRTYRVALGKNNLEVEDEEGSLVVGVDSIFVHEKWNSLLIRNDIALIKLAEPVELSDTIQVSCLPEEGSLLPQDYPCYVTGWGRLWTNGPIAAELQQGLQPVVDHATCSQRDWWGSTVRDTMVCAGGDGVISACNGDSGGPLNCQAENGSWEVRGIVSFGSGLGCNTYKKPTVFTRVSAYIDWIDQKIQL
Procedure: In steps of the purification, since it was observed that a fragment which was assumed to be a degraded fragment of the serum calcium decreasing factor protein, was generated, it is assumed that this serum calcium decreasing factor has proteolytic activity. An effect of various protease inhibitors against the serum calcium decreasing factor protein of this invention was tested as follows: 1 mg/ml azo-casein was used as a substrate, incubation was conducted at temperature of 37°C for 30 min in 0.25 ml, 1 ml of 5% trichloroacetic acid was added thereto, and then the supernatant from centrifugation of the reaction products was measured for OD at 340 nm. The resulting value was used as proteolytic activity. The effect of each protease inhibitor is shown based upon a percentage where proteolytic activity of a control sample without the inhibitor is 100%.
The protease inhibitors used include phenylmethansulfonyl fluoride (PMSF), which is a serin-protease inhibitor; (4-amidinophenyl)-methanesulfonyl fluoride (APMSF), which is a trypsin-type serin-protease inhibitor; leupetin, which is a trypsin-type serin-protease-thiolprotease inhibitor; chymostatin, which is a chymotrypsin-type serinprotease inhibitor; N-[N-3-trans-carboxyoxirane-2-carbonyl)-L-leucyl]agmatine (E-64), which is a thiolprotease inhibitor; pepstatin, which is an acid protease inhibitor; trypsin inhibitors which are inhibitors of trypsin, Xa-factor, plasmin and plasmakallikrein; and aprotinin, which is an inhibitor of trypsin and kallikrein.

[2] = Serum calcium lowering in mice, in vivo assay; settings: PMSF alone administered to mice (control of Fig. 5)
Procedure: Male BALB/c mice of 4 to 6 weeks old were starved for 18 hours and 0.1M Tris-HCl buffer (pH 7.5) or 0.1M Tris-HCl buffer containing each of the three peaks dissolved therein was administered through a mouse tail vein at a dose of 100 µl per 20g of the body weight. After 4 hours, blood was drawn from the heart under ether anesthesia and serum was obtained. The serum calcium concentration was measured according to the orth-cresol phthalein complexion method.
Next, lowering of serum calcium concentration by serum calcium decreasing factor in an in vivo assay on mice was tested using serum calcium decreasing factor treated with PMSF and non-treated serum calcium decreasing factor. In the figure, open circles show the result of non-treated serum calcium decreasing factor, closed circles show the result of serum calcium decreasing factor treated with PMSF, and closed boxes show the result (control) wherein PMSF alone was administrated in an amount provided when serum calcium decreasing factor was administrated in an amount shown on the absissa.

[3] = inhibitor 100 µM, 1 mg/ml azo-casein, 37°C, 30 min, control without inhibitor = 100%, read-out: Activity of Protease (per Activity of Control%)

For `N=C(N)c1ccc(CS(=O)(=O)F)cc1` [APMSF, (4-amidinophenyl)-methanesulfonyl fluoride], the “inhibition of protease activity (in words)” value (shortened to “inhibition”) ([1]; inhibitor 50 µM) was “not being inhibited” and the “Activity of Protease (per Activity of Control%)” value ([1]; inhibitor 50 µM, 1 mg/ml azo-casein, 37°C, 30 min, control without inhibitor = 100%) was 107.0%.

With `CC(C)C[C@H](NC(=O)[C@@H](NC(=O)N[C@@H](Cc1ccccc1)C(=O)O)[C@@H]1CCN=C(N)N1)C(=O)N[C@H](C=O)Cc1ccccc1` [Chymostatin] the “inhibition” value ([1]; inhibitor 100 µM) was “inhibited” and the remaining activity at 100 µM [1, 3] was 16.1%.

In the case of `CC(C)CC(NC(=O)C1OC1C(=O)O)C(=O)NCCCCN=C(N)N` [E-64, N-[N-3-trans-carboxyoxirane-2-carbonyl)-L-leucyl]agmatine], the “inhibition” value ([1]; inhibitor 2.5 µg/ml) is reported as “not being inhibited” and the remaining activity at 2.5 µg/mL ([1]; inhibitor 2.5 µg/ml, 1 mg/ml azo-casein, 37°C, 30 min, control without inhibitor = 100%, read-out: Activity of Protease (per Activity of Control%)) is reported as 108%.

For `CC(=O)N[C@@H](CC(C)C)C(=O)N[C@@H](CC(C)C)C(=O)N[C@H](C=O)CCCNC(=N)N` [Leupeptin], the “inhibition” value ([1]; inhibitor 100 µM) was “partially inhibited” and the remaining activity at 100 µM [1, 3] was 86.8%.

For `O=S(=O)(F)Cc1ccccc1` [PMSF, phenylmethansulfonyl fluoride], the “inhibition” value ([1]; inhibitor 1 mM) was “inhibited”, the “Activity of Protease (per Activity of Control%)” value ([1]; inhibitor 1 mM, 1 mg/ml azo-casein, 37°C, 30 min, control without inhibitor = 100%) was 8.8% and the “lowering of serum calcium” value [2] was “did not lower serum calcium”.

In the case of `CC(C)CC(=O)N[C@H](C(=O)N[C@H](C(=O)N[C@@H](CC(C)C)[C@@H](O)CC(=O)N[C@@H](C)C(=O)N[C@@H](CC(C)C)[C@@H](O)CC(=O)O)C(C)C)C(C)C` [Pepstatin] (Isovaleryl-VV[Sta]A[Sta]-OH), the “inhibition” value ([1]; inhibitor 100 µM) is reported as “partially inhibited” and the remaining activity at 100 µM [1, 3] is reported as 67.9%.
